Active and inactive are the calls of the source. The calls are words filed in the database; no cut-off is given here.
Experiments:
HT-1080 [1] = experiment: HIM-PROTAC activity at GPX4/HSP90/E3 ligase in human HT-1080 cells assessed as GPX4 degradation at 1 uM measured 12 hrs post compound washout by Western blotting analysis; type: cell-based
HT-1080 [2] = experiment: Induction of ferroptosis in human HT-1080 cells assessed as increase in Fe2+ level at 1 uM incubated for 24 hrs by FerroOrange staining based confocal laser scanning microscopic analysis; type: functional, cell-based
HT-1080 [3] = experiment: HIM-PROTAC activity at GPX4/HSP90/E3 ligase in HSP90-knockdown human HT-1080 cells assessed as GPX4 degradation at 1 uM preincubated with KW-2478 and KUNB-31 for 3 hrs followed by compound addition and measured after 24 hrs by Western blotting analysis; type: cell-based
HT-1080 [4] = experiment: HIM-PROTAC activity at GPX4/HSP90/E3 ligase in CUL2-knockdown human HT-1080 cells assessed as GPX4 degradation at 0.3 to 1 uM incubated for 24 hrs by Western blotting analysis; type: cell-based; details: dose 0.3-1 µM
HT-1080 [5] = experiment: Induction of ferroptosis in human HT-1080 cells assessed as mitochondrial swelling at 1 uM incubated for 24 hrs by TEM analysis; type: functional, cell-based
[6] = Tmax in ICR mouse at 25 mg/kg, ip measured upto 24 hrs by LC-MS/MS analysis; type: ADME, organism-based; details: in vivo
HT-1080 [7] = experiment: HIM-PROTAC activity at GPX4/HSP90/E3 ligase in CUL5-knockdown human HT-1080 cells assessed as GPX4 degradation at 0.3 to 1 uM incubated for 24 hrs by Western blotting analysis; type: cell-based; details: dose 0.3-1 µM
HT-1080 [8] = experiment: HIM-PROTAC activity at GPX4/HSP90/E3 ligase in CHIP knockdown human HT-1080 cells assessed as GPX4 degradation at 1 uM incubated for 24 hrs by Western blotting analysis; type: cell-based
HT-1080 [9] = experiment: Induction of ferroptosis in human HT-1080 cells assessed as fold increase in cytotoxic IC50 incubated for 48 hrs in presence of Fer-1 by CCK-8 assay; type: functional
HT-1080 [10] = experiment: Antitumor activity against human HT-1080 cells xenografted in ip dosed BALB/c mouse assessed as tumor growth suppression administered once daily; type: functional, organism-based; details: dose 25-50 mg/kg
HT-1080 [11] = experiment: Upregulation of HMOX1 protein level in human HT-1080 cells at 1 uM incubated for 24 hrs by proteomics analysis; type: functional, cell-based
HT-1080 [12] = experiment: Downregulation of GPX4 protein level in human HT-1080 cells at 1 uM incubated for 24 hrs by proteomics analysis; type: functional, cell-based
HT-1080 [13] = experiment: HIM-PROTAC activity at GPX4/HSP90/E3 ligase in HSP90-knockdown human HT-1080 cells assessed as GPX4 degradation at 1 uM preincubated with KUNB-31 for 3 hrs followed by compound addition and measured after 24 hrs by Western blotting analysis; type: cell-based
HT-1080 [14] = experiment: HIM-PROTAC activity at GPX4/HSP90/E3 ligase in LZTR1 knockdown human HT-1080 cells assessed as GPX4 degradation at 0.3 to 1 uM incubated for 24 hrs by Western blotting analysis; type: cell-based; details: dose 0.3-1 µM
HT-1080 [15] = experiment: HIM-PROTAC activity at GPX4/HSP90/E3 ligase in CUL1-knockdown human HT-1080 cells assessed as GPX4 degradation at 0.3 to 1 uM incubated for 24 hrs by Western blotting analysis; type: cell-based; details: dose 0.3-1 µM
HT-1080 [16] = experiment: Cytotoxicity against human HT-1080 cells incubated for 48 hrs by CCK-8 assay; type: functional, cell-based; details: HT-1080, 48 h
[17] = target: T1, Phospholipid hydroperoxide glutathione peroxidase GPX4 (Homo sapiens) (UniProt P36969); experiment: Induction of GPX4 ubiquitination in human HT-1080 cells at 1 uM incubated for 12 hrs by SDS-PAGE assay; type: cell-based; details: filed as activator
T1 sequence (whole entry): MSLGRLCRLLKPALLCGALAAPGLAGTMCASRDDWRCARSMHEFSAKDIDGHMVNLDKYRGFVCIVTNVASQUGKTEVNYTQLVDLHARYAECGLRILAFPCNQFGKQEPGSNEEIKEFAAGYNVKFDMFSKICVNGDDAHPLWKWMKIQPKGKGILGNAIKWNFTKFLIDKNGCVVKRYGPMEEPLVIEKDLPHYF

[18] = HIM-PROTAC activity at GPX4/HSP90/E3 ligase in human HT-1080 cells assessed as reduction in GPX4 level incubated for 24 hrs by Western blotting analysis; type: cell-based; details: HT-1080, 24 h
Mus musculus = experiment: Upregulation of 4-HNE protein level in BALB/c mouse tumor xenografted with human HT-1080 cells at 50 to 100 mg/kg, ip measured upto 36 hrs; type: functional, organism-based; details: dose 50-100 mg/kg
[19] = Toxicity in BALB/c mouse xenografted with human HT-1080 cells assessed as change in kidney morphology at 25 to 50 mg/kg, ip administered once daily by H and E staining based assay; type: organism-based; details: in vivo, dose 25-50 mg/kg
[20] = Toxicity in BALB/c mouse xenografted with human HT-1080 cells assessed as animal death at 50 mg/kg, ip administered once daily measured after 10 days; type: organism-based; details: in vivo, 240 h, time 10 day
[21] = MRT(infinity) in ICR mouse at 25 mg/kg, ip measured upto 24 hrs by LC-MS/MS analysis; type: ADME, organism-based; details: in vivo
HT-1080 [22] = experiment: HIM-PROTAC activity at GPX4/HSP90/E3 ligase in CUL3-knockdown human HT-1080 cells assessed as GPX4 degradation at 0.3 to 1 uM incubated for 24 hrs by Western blotting analysis; type: cell-based; details: dose 0.3-1 µM
HT-1080 [23] = experiment: HIM-PROTAC activity at GPX4/HSP90/E3 ligase in human HT-1080 cells assessed as GPX4 degradation at 0.3 to 1 uM preincubated with MLN4924 for 2 hrs followed by compound addition and measured after 24 hrs by Western blotting analysis; type: cell-based; details: dose 0.3-1 µM
HT-1080 [24] = experiment: HIM-PROTAC activity at GPX4/HSP90/E3 ligase in human HT-1080 cells assessed as reduction in GPX4 level at 1 uM preincubated with 6-chloro-9-((4-methoxy-3,5-dimethylpyridin-2-yl)methyl)-9H-purin-2-amine for 2 hrs followed by compound addition and measured after 24 hrs by Western blotting analysis; type: cell-based
HT-1080 [25] = experiment: HIM-PROTAC activity at GPX4/HSP90/E3 ligase in human HT-1080 cells assessed as downregulation of GPX4 mRNA level at 0.1 to 1 uM incubated for 24 hrs by qRT-PCR analysis; type: cell-based; details: dose 0.1-1 µM
HT-1080 [26] = experiment: HIM-PROTAC activity at GPX4/HSP90/E3 ligase in human HT-1080 cells assessed as downregulation of GPX4 mRNA level at 1 uM incubated for 24 hrs by qRT-PCR analysis; type: cell-based
HT-1080 [27] = experiment: HIM-PROTAC activity at GPX4/HSP90/E3 ligase in human HT-1080 cells assessed as GPX4 degradation at 1 uM measured 24 hrs post compound washout by Western blotting analysis; type: cell-based
[28] = Drug uptake in human HT-1080 cells at 5 uM incubated for 18 hrs by LC-MS analysis; type: ADME, cell-based; details: ht-1080, 18 h

Compound | Activity (HT-1080 [2]) | Activity (HT-1080 [5]) | Tmax [6] [h] | fold change (FC) (HT-1080 [9]) | Activity (HT-1080 [10]) | Activity (HT-1080 [11]) | Activity (HT-1080 [12]) | IC50 (HT-1080 [16]) [nM] | Activity [17] | DC50 [18] [nM] | Activity (Mus musculus) | Activity [19] | Activity [20] | MRT inf [21] [h] | Activity (HT-1080 [24]) | further results
COc1c(C)cnc(Cn2cnc3c(NCCC4CCN(C(=O)Cn5cc(COc6ccc(N(C(=O)CCl)C(C(=O)NCCc7ccccc7)c7cccs7)cc6Cl)nn5)CC4)nc(N)nc32)c1C (centres undefined) | Active | Active | 2 | 45 | Dose-Dependent Effect | Active | Active | 740 | Active | 80 | Active | Non-Toxic | Non-Toxic | 6.2 | inactive | Activity (HT-1080 [1]): Active; Activity (HT-1080 [3]): inactive; Activity (HT-1080 [4]): Active; Activity (HT-1080 [7]): inactive; Activity (HT-1080 [8]): inactive; Activity (HT-1080 [13]): inactive; Activity (HT-1080 [14]): Active; Activity (HT-1080 [15]): Active; Activity (HT-1080 [22]): Active; Activity (HT-1080 [23]): inactive; Activity (HT-1080 [25]): inactive
COc1c(C)cnc(Cn2cnc3c(NCCOCCOCCOCCn4cc(COc5ccc(N(C(=O)CCl)C(C(=O)NCCc6ccccc6)c6cccs6)cc5Cl)nn4)nc(N)nc32)c1C (centres undefined) | Active | Active | 2 | 2 | Dose-Dependent Effect | Active | Active | 1300 | Active | 180 | Active | Non-Toxic | Non-Toxic | 8.2 | inactive | Activity (HT-1080 [26]): Active; Activity (HT-1080 [27]): Active; Drug uptake [28]: Not Active

Reference: ChEMBL document CHEMBL5608234, “Heat Shock Protein 90 Interactome-Mediated Proteolysis Targeting Chimera (HIM-PROTAC) Degrading Glutathione Peroxidase 4 to Trigger Ferroptosis” (J Med Chem, 2024)
